{"source": "paper PMC12108418", "about": "“Broad-Spectrum Gramicidin S Derivatives with Potent Activity Against Multidrug-Resistant Gram-Negative ESKAPE Pathogens” (Antibiotics, 2025)", "format_in_all_cases": "cell-based", "key": {"[1]": {"system": "Pseudomonas aeruginosa (ATCC 27853)", "settings": "ATCC 27853", "experimental": "(§1) The antibacterial efficacy of peptides was assessed using the broth microdilution method in accordance with Clinical and Laboratory Standards Institute (CLSI) guidelines (M07-A10, 2015 [33]). The minimum inhibitory concentrations (MICs) were determined against Escherichia coli (ATCC 25922), Klebsiella pneumoniae (ATCC 33495), Pseudomonas aeruginosa (ATCC 27853), Acinetobacter baumannii (ATCC 19606), and Staphylococcus aureus (ATCC 29213 and ATCC USA300). Bacterial suspensions were standardised to 5 × 10^4 colony-forming units (CFUs)/well in cation-adjusted Mueller–Hinton broth (CAMHB). Peptides were dissolved in 25% DMSO and serially diluted two-fold across 96-well plates, reaching final concentrations ranging from 256 to 0.125 µg/mL. The wells were inoculated, ensuring a final volume of 100 µL per well, with a DMSO concentration of 1% (v/v) to minimise solvent interference. […] Vancomycin was used as the positive control for S. aureus. Polymyxin B served as the positive control for Gram-negative bacteria. CAMHB with 1% (v/v) DMSO (without peptides) was used as the negative control. All experiments were performed in triplicate (n = 3). Bacterial isolates were stored in tryptone soy broth with 30% glycerol at −80 °C for long-term preservation."}, "[2]": {"system": "Acinetobacter baumannii (ATCC 19606)", "experimental": "as §1"}, "[3]": {"system": "Klebsiella pneumoniae (ATCC 33495)", "settings": "ATCC 33495", "experimental": "as §1"}, "[4]": {"system": "Escherichia coli (ATCC 25922)", "experimental": "as §1"}, "[5]": {"settings": "broth microdilution in CAMHB, 5 × 10^4 CFU/well, 1% DMSO, 37 °C, 16–20 h, 256 to 0.125 µg/mL, triplicate (n = 3)"}}, "note": "Read-outs that look alike come from different tables or passages of the source. Square brackets hold non-standard residues; d marks the D form. Peptide text beside a SMILES is read from it. Orn = NCCC[C@H](N)C(=O)O"}
{"smiles": "CC(C)C[C@@H]1NC(=O)[C@H](CCCN)NC(=O)[C@H](C(C)C)NC(=O)[C@H](Cc2c[nH]c3ccccc23)NC(=O)[C@@H](Cc2c[nH]c3ccccc23)NC(=O)[C@H](CC(C)C)NC(=O)[C@H](CCCN)NC(=O)[C@H](C(C)C)NC(=O)[C@H](Cc2c[nH]c3ccccc23)NC(=O)[C@@H](Cc2ccccc2)NC1=O", "note": "[Peptide 5] (cyclo(L[dF]WV[Orn]L[dW]WV[Orn]))", "values": [{"measurement": "MIC P. aeruginosa ATCC 27853", "setting": "[1]", "value": ">256", "unit": "µg/mL"}, {"measurement": "MIC A. baumannii ATCC 19606", "setting": "[2]; [5]", "value": "> 256", "unit": "µg/mL"}, {"measurement": "MIC K. pneumonia ATCC 33495", "setting": "[3]", "value": ">256", "unit": "µg/mL"}, {"measurement": "MIC E. coli ATCC 25922", "setting": "[4]; [5]", "value": "> 256", "unit": "µg/mL"}]}
{"smiles": "CC(C)C[C@@H]1NC(=O)[C@H](CCCN)NC(=O)[C@H](C(C)C)NC(=O)[C@@H]2CCCN2C(=O)[C@@H](Cc2ccccc2)NC(=O)[C@H](CC(C)C)NC(=O)[C@H](CCCN)NC(=O)[C@H](C(C)C)NC(=O)[C@H](Cc2c[nH]c3ccccc23)NC(=O)[C@@H](Cc2ccccc2)NC1=O", "note": "[Peptide 2] (cyclo(L[dF]PV[Orn]L[dF]WV[Orn]))", "values": [{"measurement": "MIC P. aeruginosa ATCC 27853", "setting": "[1]", "value": ">256", "unit": "µg/mL"}, {"measurement": "MIC A. baumannii ATCC 19606", "setting": "[2]; ATCC 19606", "value": 64, "unit": "µg/mL"}, {"measurement": "MIC K. pneumonia ATCC 33495", "setting": "[3]", "value": ">256", "unit": "µg/mL"}, {"measurement": "MIC E. coli ATCC 25922", "setting": "[4]; ATCC 25922", "value": 256, "unit": "µg/mL"}]}
{"smiles": "CC(C)C[C@@H]1NC(=O)[C@H](CCCN)NC(=O)[C@H](C(C)C)NC(=O)[C@@H]2CCCN2C(=O)[C@@H](Cc2ccccc2)NC(=O)[C@H](CC(C)C)NC(=O)[C@H](CCCN)NC(=O)[C@H](C(C)C)NC(=O)[C@H](Cc2c[nH]c3ccccc23)NC(=O)[C@@H](Cc2c[nH]c3ccccc23)NC1=O", "note": "[Peptide 3] (cyclo(L[dF]PV[Orn]L[dW]WV[Orn]))", "values": [{"measurement": "MIC P. aeruginosa ATCC 27853", "setting": "[1]", "value": ">256", "unit": "µg/mL"}, {"measurement": "MIC A. baumannii ATCC 19606", "setting": "[2]; ATCC 19606", "value": 128, "unit": "µg/mL"}, {"measurement": "MIC K. pneumonia ATCC 33495", "setting": "[3]", "value": ">256", "unit": "µg/mL"}, {"measurement": "MIC E. coli ATCC 25922", "setting": "[4]; [5]", "value": "> 256", "unit": "µg/mL"}]}
{"smiles": "CC(C)C[C@@H]1NC(=O)[C@H](CCCN)NC(=O)[C@H](C(C)C)NC(=O)[C@H](Cc2c[nH]c3ccccc23)NC(=O)[C@@H](Cc2ccccc2)NC(=O)[C@H](CC(C)C)NC(=O)[C@H](CCCN)NC(=O)[C@H](C(C)C)NC(=O)[C@H](Cc2c[nH]c3ccccc23)NC(=O)[C@@H](Cc2ccccc2)NC1=O", "note": "[Peptide 4] (cyclo(L[dF]WV[Orn]L[dF]WV[Orn]))", "values": [{"measurement": "MIC P. aeruginosa ATCC 27853", "setting": "[1]", "value": ">256", "unit": "µg/mL"}, {"measurement": "MIC A. baumannii ATCC 19606", "setting": "[2]; [5]", "value": "> 256", "unit": "µg/mL"}, {"measurement": "MIC K. pneumonia ATCC 33495", "setting": "[3]", "value": ">256", "unit": "µg/mL"}, {"measurement": "MIC E. coli ATCC 25922", "setting": "[4]; [5]", "value": "> 256", "unit": "µg/mL"}]}
{"smiles": "CC(C)C[C@@H]1NC(=O)[C@H](CCCN)NC(=O)[C@H](C(C)C)NC(=O)[C@@H]2CCCN2C(=O)[C@@H](Cc2ccccc2)NC(=O)[C@H](CC(C)C)NC(=O)[C@H](CCCN)NC(=O)[C@H](C(C)C)NC(=O)[C@@H]2CCCN2C(=O)[C@@H](Cc2ccccc2)NC1=O", "note": "[GS, gramicidin S] (cyclo(V[Orn]L[dF]PV[Orn]L[dF]P))", "values": [{"measurement": "MIC P. aeruginosa ATCC 27853", "setting": "[1]", "value": 128, "unit": "µg/mL"}, {"measurement": "MIC A. baumannii ATCC 19606", "setting": "[2]; ATCC 19606", "value": 8, "unit": "µg/mL"}, {"measurement": "MIC K. pneumonia ATCC 33495", "setting": "[3]", "value": 128, "unit": "µg/mL"}, {"measurement": "MIC E. coli ATCC 25922", "setting": "[4]; ATCC 25922", "value": 32, "unit": "µg/mL"}]}
{"smiles": "CC(C)C[C@@H]1NC(=O)[C@H](CCCN)NC(=O)[C@H](C(C)C)NC(=O)[C@H](Cc2c[nH]c3ccccc23)NC(=O)[C@@H](Cc2ccccc2)NC(=O)[C@H](CC(C)C)NC(=O)[C@H](CCCN)NC(=O)[C@H](C(C)C)NC(=O)[C@H](Cc2c[nH]c3ccccc23)NC(=O)[C@@H](CCCNC(=N)N)NC1=O", "note": "[Peptide 11] (cyclo(L[dF]WV[Orn]L[dR]WV[Orn]))", "values": [{"measurement": "MIC P. aeruginosa ATCC 27853", "setting": "[1]", "value": 32, "unit": "µg/mL"}, {"measurement": "MIC A. baumannii ATCC 19606", "setting": "[2]; ATCC 19606", "value": 8, "unit": "µg/mL"}, {"measurement": "MIC K. pneumonia ATCC 33495", "setting": "[3]", "value": 16, "unit": "µg/mL"}, {"measurement": "MIC E. coli ATCC 25922", "setting": "[4]; ATCC 25922", "value": 16, "unit": "µg/mL"}]}
